Reference: publication PMC7031696 (Cell chemical biology, 2019)
Read-outs that look alike come from different tables or passages of the source.

Columns and labels:
[1] = test system: asynchronous 3D7-A10 parasite cultures; assay: Standard 72-h exposure asexual blood stage susceptibility assay (IC50^72h); format: cell-based, Plasmodium falciparum; conditions: Plasmodium falciparum, 3D7, 72 h, read-out: Overall (72hr assay) Mean IC50 (IC50^72h)
[2] = test system: 3D7-MR4 trophozoite parasite-infected RBCs; assay: Metabolomic profiling (hydrophilic metabolite changes, UHPLC-MS); format: cell-based, Plasmodium falciparum
[3] = test system: Plasmodium falciparum 3D7-A10 parasites; assay: Stage specificity assay (8-h exposure of synchronized stages, IC50^8h); format: cell-based; conditions: Plasmodium falciparum

In the case of `COc1ccc(C2c3ccc4ccccc4c3Oc3ncn(CCCN(C)C)c(=N)c32)cc1` (centres unmarked) [MMV667491], the IC50 [1] is reported as 243 nM, the “peptide levels (hemoglobin catabolism signature)” value ([2]; 10 × IC50^72h, 2.5 hr, trophozoites) is reported as “decreased peptide levels” and the “Log2(fold changes) 3-phosphoglycerate” value ([2]; metabolite 3-phosphoglycerate, log2 fold change) is reported as 0.2589. For the same compound, the “Log2(fold changes) 4-Pyridoxic acid” value ([2]; metabolite 4-Pyridoxic acid, log2 fold change) was 0.1545, the “Log2(fold changes) 4-aminobutyrate” value ([2]; metabolite 4-aminobutyrate, log2 fold change) was -0.0143 and the “Log2(fold changes) 4-phosphopantetheine” value ([2]; metabolite 4-phosphopantetheine, log2 fold change) was 0.0000. For the same compound, the “Log2(fold changes) 4-phosphopantothenate” value ([2]; metabolite 4-phosphopantothenate, log2 fold change) was -0.5959, the “Log2(fold changes) 5-aminopentanoic acid” value ([2]; metabolite 5-aminopentanoic acid, log2 fold change) was 0.0000 and the “Log2(fold changes) 5-methyl-THF” value ([2]; metabolite 5-methyl-THF, log2 fold change) was 0.0000. The “Log2(fold changes) 5-phosphoribosyl-1-pyrophosphate” value ([2]; metabolite 5-phosphoribosyl-1-pyrophosphate, log2 fold change) was 0.0000, the “Log2(fold changes) 6-phospho-D-gluconate” value ([2]; metabolite 6-phospho-D-gluconate, log2 fold change) was -0.3071 and the “Log2(fold change) HVDD” value ([2]; metabolite HVDD) was -3.1004. For the same compound, the “Log2(fold change) Hydroxyisocaproic acid” value ([2]; metabolite Hydroxyisocaproic acid) was 0.0000, the “Log2(fold change) IDP” value ([2]; metabolite IDP) was 0.0000 and the “Log2(fold change) IMP” value ([2]; metabolite IMP) was -0.4029. For the same compound, the “Log2(fold change) Inositol” value ([2]; metabolite Inositol) was 0.0000, the “Log2(fold change) Isopentyl-PP” value ([2]; metabolite Isopentyl-PP) was -0.4741 and the “Log2(fold change) L-arginino-succinate” value ([2]; metabolite L-arginino-succinate) was 1.0249. The “Log2(fold change) LD” value ([2]; metabolite LD) was 0.5039, the “Log2(fold change) Myristoyl/tetradecanoyl-CoA” value ([2]; metabolite Myristoyl/tetradecanoyl-CoA) was 0.0000 and the “Log2(fold change) N-Acetyl-L-alanine” value ([2]; metabolite N-Acetyl-L-alanine) was -0.5066. For the same compound, the “Log2(fold change) N-acetyl-L-ornithine” value ([2]; metabolite N-acetyl-L-ornithine) was -0.0359, the “Log2(fold change) N-acetyl-glucosamine-1/6-phosphate” value ([2]; metabolite N-acetyl-glucosamine-1/6-phosphate) was -0.2210 and the “Log2(fold change) N-acetyl-glutamate” value ([2]; metabolite N-acetyl-glutamate) was -0.3035. For the same compound, the “Log2(fold change) N-acetyl-glutamine” value ([2]; metabolite N-acetyl-glutamine) was 2.2691, the “Log2(fold change) N-carbamoyl-L-aspartate” value ([2]; metabolite N-carbamoyl-L-aspartate) was -0.9439 and the “Log2(fold change) NAD+” value ([2]; metabolite NAD+) was -0.1377. The “Log2(fold change) NADH” value ([2]; metabolite NADH) was 0.2776, the “Log2(fold change) NADP+” value ([2]; metabolite NADP+) was 0.1452 and the “Log2(fold change) NADPH” value ([2]; metabolite NADPH) was 0.1884. For the same compound, the “Log2(fold change) O-acetyl-L-serine” value ([2]; metabolite O-acetyl-L-serine) was -0.0049, the “Log2(fold change) Octoluse 8/1P” value ([2]; metabolite Octoluse 8/1P) was 0.3908 and the “Log2(fold change) Octoluse Bisphosphate” value ([2]; metabolite Octoluse Bisphosphate) was 1.4853. For the same compound, the “Log2(fold change) PD” value ([2]; metabolite PD) was -2.5358, the “Log2(fold change) PE” value ([2]; metabolite PE) was -0.3826 and the “Log2(fold change) PEE” value ([2]; metabolite PEE) was -0.0417. The “Log2(fold change) PEEK” value ([2]; metabolite PEEK) was 0.3987, the “Log2(fold change) PVNF” value ([2]; metabolite PVNF) was -3.7257 and the “Log2(fold change) Pyroglutamic acid” value ([2]; metabolite Pyroglutamic acid) was -0.2992. The “Log2(fold change) Pyrophosphate” value ([2]; metabolite Pyrophosphate) was 0.0000, the “Log2(fold change) Ribose-5-phosphate” value ([2]; metabolite Ribose-5-phosphate) was -0.2620 and the “Log2(fold change) S-adenosyl-L-homocysteine” value ([2]; metabolite S-adenosyl-L-homocysteine) was 0.0103. For the same compound, the “Log2(fold change) S-adenosyl-L-methioninamine” value ([2]; metabolite S-adenosyl-L-methioninamine) was -2.2715, the “Log2(fold change) S-adenosyl-L-methionine” value ([2]; metabolite S-adenosyl-L-methionine) was 0.0000 and the “Log2(fold change) S-methyl-5'-thioadenosine” value ([2]; metabolite S-methyl-5'-thioadenosine) was 1.0471. For the same compound, the “Log2(fold change) SD” value ([2]; metabolite SD) was -1.2290, the “Log2(fold change) SDL” value ([2]; metabolite SDL) was 0.0000 and the “Log2(fold change) SID” value ([2]; metabolite SID) was -0.4398. For the same compound, the “Log2(fold change) Sedoheptulose bisphosphate” value ([2]; metabolite Sedoheptulose bisphosphate) was 1.3696, the “Log2(fold change) Thiamine pyrophosphate” value ([2]; metabolite Thiamine pyrophosphate) was -0.0845 and the “Log2(fold changes) UDP-D-glucose” value ([2]; metabolite UDP-D-glucose, log2 fold change) was 0.2535. The “Log2(fold changes) UDP-D-glucuronate” value ([2]; metabolite UDP-D-glucuronate, log2 fold change) was 0.0929, the “Log2(fold changes) UDP-N-acetyl-glucosamine” value ([2]; metabolite UDP-N-acetyl-glucosamine, log2 fold change) was -0.0110 and the “Log2(fold changes) UDP” value ([2]; metabolite UDP, log2 fold change) was -0.5582. The “Log2(fold changes) UMP” value ([2]; metabolite UMP, log2 fold change) was -1.0091, the “Log2(fold changes) UTP” value ([2]; metabolite UTP, log2 fold change) was 0.0000 and the “Log2(fold change) hydroxyphenylpyruvate” value ([2]; metabolite hydroxyphenylpyruvate) was 0.0000. For the same compound, the “Log2(fold change) hydroxyproline/Aminolevulinate” value ([2]; metabolite hydroxyproline/Aminolevulinate) was -0.0313, the “Log2(fold change) hypoxanthine” value ([2]; metabolite hypoxanthine) was 0.1226 and the “Log2(fold change) indole” value ([2]; metabolite indole) was 0.0000. For the same compound, the “Log2(fold change) inosine” value ([2]; metabolite inosine) was 0.0977, the “Log2(fold change) isoleucine” value ([2]; metabolite isoleucine) was 0.0000 and the “Log2(fold change) lactate” value ([2]; metabolite lactate) was -0.2958. For the same compound, the “Log2(fold change) leucine” value ([2]; metabolite leucine) was 0.0000, the “Log2(fold change) lysine” value ([2]; metabolite lysine) was -0.5255 and the “Log2(fold change) malate” value ([2]; metabolite malate) was -0.2587. The “Log2(fold change) maleic acid” value ([2]; metabolite maleic acid) was -0.3091, the “Log2(fold change) methionine” value ([2]; metabolite methionine) was 0.3155 and the “Log2(fold change) myo-inositol” value ([2]; metabolite myo-inositol) was -0.2765. For the same compound, the “Log2(fold change) nicotinamide mononucleotide” value ([2]; metabolite nicotinamide mononucleotide) was -0.3204, the “Log2(fold change) nicotinate” value ([2]; metabolite nicotinate) was -0.1938 and the “Log2(fold change) ornithine” value ([2]; metabolite ornithine) was 0.1211. The “Log2(fold change) orotate” value ([2]; metabolite orotate) was -0.0965, the “Log2(fold change) orotidine-5'-phosphate” value ([2]; metabolite orotidine-5'-phosphate) was -2.6245 and the “Log2(fold change) oxaloacetate” value ([2]; metabolite oxaloacetate) was -0.0776. For the same compound, the “Log2(fold change) p-aminobenzoate” value ([2]; metabolite p-aminobenzoate) was 0.0000, the “Log2(fold change) p-hydroxybenzoate” value ([2]; metabolite p-hydroxybenzoate) was 0.0000 and the “Log2(fold change) pantothenate” value ([2]; metabolite pantothenate) was 0.1007. The “Log2(fold change) phenylalanine” value ([2]; metabolite phenylalanine) was -0.2555, the “Log2(fold change) phenylpyruvate” value ([2]; metabolite phenylpyruvate) was 0.0000 and the “Log2(fold change) phosphoenolpyruvate” value ([2]; metabolite phosphoenolpyruvate) was 0.7161. The “Log2(fold change) prephenate” value ([2]; metabolite prephenate) was -0.9019, the “Log2(fold change) proline” value ([2]; metabolite proline) was -0.2246 and the “Log2(fold change) pyridoxine” value ([2]; metabolite pyridoxine) was -0.1003. The “Log2(fold change) pyruvate” value ([2]; metabolite pyruvate) was -0.3220, the “Log2(fold change) riboflavin” value ([2]; metabolite riboflavin) was 0.6538 and the “Log2(fold change) ribose” value ([2]; metabolite ribose) was 0.3285. For the same compound, the “Log2(fold change) ribose-phosphate” value ([2]; metabolite ribose-phosphate) was -0.4272, the “Log2(fold change) ribulose-5-phosphate” value ([2]; metabolite ribulose-5-phosphate) was -0.4317 and the “Log2(fold change) serine” value ([2]; metabolite serine) was 0.1307. The “Log2(fold change) sn-glycerol-3-phosphate” value ([2]; metabolite sn-glycerol-3-phosphate) was 0.0813, the “Log2(fold change) succinate/Methylmalonic acid” value ([2]; metabolite succinate/Methylmalonic acid) was -0.0916 and the “Log2(fold change) succinyl-CoA/methylmalonyl-CoA” value ([2]; metabolite succinyl-CoA/methylmalonyl-CoA) was 0.0000. The “Log2(fold change) taurine” value ([2]; metabolite taurine) was 0.1233, the “Log2(fold change) thiamine” value ([2]; metabolite thiamine) was -0.6378 and the “Log2(fold change) threonine/homoserine” value ([2]; metabolite threonine/homoserine) was -0.0132. The “Log2(fold change) thymidine” value ([2]; metabolite thymidine) was 0.0000, the “Log2(fold changes) thymine” value ([2]; metabolite thymine, log2 fold change) was 0.0000 and the “Log2(fold changes) trehalose-6-Phosphate” value ([2]; metabolite trehalose-6-Phosphate, log2 fold change) was 0.0000. For the same compound, the “Log2(fold changes) tryptophan” value ([2]; metabolite tryptophan, log2 fold change) was -0.6838, the “Log2(fold changes) tyrosine” value ([2]; metabolite tyrosine, log2 fold change) was 0.0515 and the “Log2(fold changes) uridine” value ([2]; metabolite uridine, log2 fold change) was 0.0000. It also gave an IC50 ([3]; 3D7, read-out: Early rings Mean IC50 (IC50^8h), 8-h exposure 0–8 hr, 3D7-A10, survival at 60 h) of 2260 nM, an IC50 ([3]; 3D7, read-out: Early trophozoites Mean IC50 (IC50^8h), 8-h exposure 16–24 hr, 3D7-A10, survival at 60 h) of 521 nM and an IC50 ([3]; 3D7, read-out: Late rings Mean IC50 (IC50^8h), 8-h exposure 8–16 hr, 3D7-A10, survival at 60 h) of 1270 nM. It also gave an IC50 ([3]; 3D7, read-out: Late trophozoites Mean IC50 (IC50^8h), 8-h exposure 24–32 hr, 3D7-A10, survival at 60 h) of 731 nM and an IC50 ([3]; 3D7, read-out: Schizonts Mean IC50 (IC50^8h), 8-h exposure 32–40 hr, 3D7-A10, survival at 60 h) of 842 nM.
